Measurements from patent US11472787B2, “Docosahexaenoic acid endocannabinoid epoxide derivative compositions” (The Board of Trustees of the University of Illinois, priority 2017, dated 2022).
pEC50: −log10 of the molar value.

Columns and labels:
143B cells [1] = assay: Annexin V binding apoptosis assay in 143B cells; format: cell-based; details: 12.5 μM, 24 hours
Procedure: (§1) All three amino-modified derivatives of 10,11-EDP were tested for their apoptotic activity using a BD biosciences Annexin V binding assay for apoptosis at 12.5 μM concentration (FIG. 2). Cells were grown and maintained in Dulbecco's modified Eagle's medium supplemented with 10% fetal bovine serum, 1% streptomycin and penicillin at 37° C. in a 5% CO2 humidified air atmosphere in 12 well plate to 90% confluency and then appropriate amount of compound or control was added to the well. The cells were incubated for 24 hours and then prepared for apoptosis assays as indicated in BD biosciences Annexin V binding assay kit instructions and analyzed by BD Accuri C6 flow cytometer and FCS flow software. […] However, their effects were not consistent in trend among the three cell lines. The cyclopropyl analog seemed to have the highest pro-apoptotic potential among the three within error limits. […] In 143B cells the increase in pro-apoptotic potential was only 18.8±0.3% for the iso-propyl derivative as compared to 25.7±0.4% for the n-propyl derivative.

CNR2 (CB2) = CNR2 (CB2) (Homo sapiens (Human), UniProt P34972); assay: Presto-Tango β-arrestin recruitment assay, CNR2; format: cell-based; details: HTLA cells
Procedure: (§2) Binding of the parent compounds to putative receptors CNR1 and CNR2 (cannabinoid receptors 1& 2) was measured by a Presto-Tango assay (FIG. 5A and FIG. 5B). […] HTLA were received from the Roth Lab and CNR1 and CNR2 plasmids were purchased from Addgene. HTLA cells were maintained in DMEM with 10% FBS containing 2 μg/mL of puromycin and 100 μg/mL of hygromycin B at 37° C. in a 5% CO2 humidified air atmosphere and grown to 80-90% confluency. Cells were then seeded at 20,000 cells per 100 uL into poly-L-lysine coated 96-well plate. After 18-24 hrs, cells were transfected with CNR2 (0.1 ug/well) using Calfectin as the transfection reagent. Transfection media was replaced after 12-18 hours with serum-media and proceeded for ˜36 hours. On the day of the assay, serum-media was replaced with serum-free media for 4 hours, then the compounds were added in a log dose manner in DMSO to a final well volume of 200 uL and incubated overnight. The next day, media was removed and 20 μL of Bright-Glo solution was added to the cells and incubated for 20 min at room temperature in the dark and measured for luminescence. Relative luminescence units (RLU) values were normalized to % receptor response, plotted as a function of compound concentration and analyzed using “DoseResp” in OriginPro.

MG63 cells [2] = assay: Scratch (wound migration) assay in MG63 cells; format: cell-based; details: MG63 cell line
Procedure: (§3) A scratch assay was performed to analyze the anti-migratory properties of the three derivatives (FIGS. 3A-3C and 7). Cells were grown and maintained in Dulbecco's modified Eagle's medium supplemented with 10% fetal bovine serum, 1% streptomycin and penicillin at 37° C. in a 5% CO2 humidified air atmosphere in a 12 well plate to a confluent monolayer and then a scratch was made across the center and images were taken. The media was changed and appropriate compounds and controls were added and images of the scratch were taken every 2 hours. The images were processed by ImageJ software. In HOS cells (FIG. 3A), all 10,11-EDP derivatives restricted wound migration at 5 μM concentration.

HOS cells [3] = assay: Annexin V binding apoptosis assay in HOS cells; format: cell-based; details: 12.5 μM, 24 hours
Procedure: as §1

143B cells [4] = assay: Scratch (wound migration) assay in 143B cells; format: cell-based
Procedure: as §3

HOS cells [5] = assay: Scratch (wound migration) assay in HOS cells; format: cell-based; details: 5 μM; for restriction of wound migration as compared to control: over 10 hours
Procedure: as §3

CNR1 (CB1) = CNR1 (CB1) (Homo sapiens (Human), UniProt P21554); assay: Presto-Tango β-arrestin recruitment assay, CNR1; format: cell-based; details: HTLA cells
Procedure: as §2

MG63 cells [6] = assay: Annexin V binding apoptosis assay in MG63 cells; format: cell-based; details: 12.5 μM, 24 hours
Procedure: as §1

[7] = biological target: Fatty acid amide hydrolase (FAAH) (Sus scrofa (Pig), UniProt Q9TUI8); assay: Susceptibility to FAAH hydrolysis in pig brain membrane preparations; details: pig forebrain membranes, amide at 20 μM, 40 min
Procedure: Fatty acid amide hydrolase (FAAH) is a ubiquitously expressed protein in various mammals and the sequence of the protein has shown to be highly conserved in humans, mouse and pig. […] The preparation of pig forebrain membranes was achieved using dounce homogenization in buffer (50 mM Tris pH 7.4, 1 mM EDTA and 3 mM MgCl2) and membrane pelleting as previously described (Hillard, C. J.; Wilkison, D. M.; Edgemond, W. S.; Campbell, W. B. Characterization of the kinetics and distribution of N-arachidonylethanolamine (anandamide) hydrolysis by rat brain. Biochim Biophys Acta 1995, 1257, 249-56). Incubations contained 5 μg forebrain protein in a 0.5 mL reaction containing 50 mM Tris (pH 7.4), 1 mM EDTA, 3 mM MgCl2, and amide at 20 μM. At 40 min reactions were quenched with methanol containing 1 mM PMSF and centrifuged to pellet protein (10,000 g×10 min). The supernatant was collected and analyzed via LC-MS/MS as outlined below.
The products of hydrolysis were measured by LC-MS/MS as indicated in materials and methods section.

HUVEC cells = assay: Endothelial tube formation (angiogenesis) assay on matrigel; format: cell-based; details: 0.5 μM or 1 μM compound, 5 hours
From the text: Increased angiogenesis is one of the hallmarks of cancer. The development of neo-vascularization is key for the adequate supply of nutrients and oxygen to the site of metastasis. Endothelial tube formation on matrix has been established as a cellular model for angiogenesis. Endothelial HUVEC cells form a networks of tubes when plated on matrigel and the tube formation in presence and absence of treatment can be quantified as a measure of restricted angiogenic potential.
Angiogenesis in endothelial HUVEC cells was measured using abcam angiogenesis kit (ab204726). Briefly, HUVEC cells at passage 2 (p=2) were grown to 80% confluency. The matrigel provided was thawed overnight and 50 μL was put into each well of a 96 well plate that had been chilled overnight in a −20° C. freezer. The plate was rocked slightly and then allowed to incubate at 37° C. for 1 hour. 15,000 HUVEC cells were then plated into the wells and were treated with vehicle control or 0.5 μM or 1 μM compound. A no matrix control and a control with vinblastine (inhibitor of angiogenesis) was also performed. All wells were performed in duplicates. The plates were then incubated for 5 hours at 37° C. […] The wells were imaged using a fluorescent microscope and analyzed using ImageJ with Angiogenesis Analyzer Plugin. […] The tube formation was assessed by Image J analysis.

BV-2 microglial cells = assay: Anti-inflammatory assay in LPS-stimulated microglial cells; format: cell-based, mouse; details: BV-2 cells, 4 hours pre-incubation, 25 ng/mL LPS
Procedure: The anti-inflammatory effect of parent compounds was tested by measuring nitrite production in Bv2 microglial cells and the reduction in pro-inflammatory cytokine IL-6 (FIG. 4). Experiments were performed with mouse BV-2 microglial cells. Cells were grown and maintained in Dulbecco's modified Eagle's medium supplemented with 10% fetal bovine serum, 1% streptomycin and penicillin at 37° C. in a 5% CO2 humidified air atmosphere. BV-2 cells were seeded in 24-well plates (200K cells/mL) and grown to 80-90% confluency. For regioisomer screening and dose response studies, media was replaced with serum-free media and the cells were pre-incubated with the regioisomers for 4 hours prior to stimulation with 25 ng/mL LPS (Sigma-Aldrich, USA). Production of nitric oxide (NO) and cell toxicity and IL-6 production were measured.

Fatty acid amide hydrolase (FAAH), sequence (Q9TUI8 whole entry): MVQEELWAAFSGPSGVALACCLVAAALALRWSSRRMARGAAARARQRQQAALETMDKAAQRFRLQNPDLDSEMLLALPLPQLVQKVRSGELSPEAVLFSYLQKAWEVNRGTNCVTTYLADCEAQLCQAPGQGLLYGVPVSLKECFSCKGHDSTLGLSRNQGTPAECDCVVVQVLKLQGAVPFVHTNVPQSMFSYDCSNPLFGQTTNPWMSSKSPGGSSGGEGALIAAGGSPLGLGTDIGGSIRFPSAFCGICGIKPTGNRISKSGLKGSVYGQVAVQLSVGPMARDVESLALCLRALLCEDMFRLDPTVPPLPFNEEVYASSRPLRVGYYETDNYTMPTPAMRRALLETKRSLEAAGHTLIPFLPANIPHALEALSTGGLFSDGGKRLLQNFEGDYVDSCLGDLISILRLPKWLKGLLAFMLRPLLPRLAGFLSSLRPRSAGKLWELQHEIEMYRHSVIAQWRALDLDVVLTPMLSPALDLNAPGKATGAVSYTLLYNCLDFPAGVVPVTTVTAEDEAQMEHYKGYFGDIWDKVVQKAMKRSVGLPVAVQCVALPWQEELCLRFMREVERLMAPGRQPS

Row | Compound | apoptosis (apoptotic potential) (143B cells [1]) [%] | pEC50 (CNR2 (CB2)) | restriction in wound healing as compared to the control (MG63 cells [2]) | apoptosis (apoptotic potential) (HOS cells [3]) [%] | restriction in wound migration as compared to the control (143B cells [4]) | inhibition of migration more than vehicle control (HOS cells [5]; 8 and 10 hour time points) | restriction of wound migration as compared to control (HOS cells [5]) | pEC50 (CNR1 (CB1)) | apoptosis (apoptotic potential) (MG63 cells [6]) [%] | rate of hydrolysis [7] [pmol min^−1 mg protein^−1] | tube formation (angiogenesis) (HUVEC cells) | IL-6 production (BV-2 microglial cells) | nitrite production (BV-2 microglial cells)
1 | CC/C=C\C/C=C\C/C=C\CC1OC1C/C=C\C/C=C\CCC(=O)NC1CC1 (stereo not shown) [10,11-EDP-CA, (4Z,7Z)—N-Cyclopropyl-9-(3-((2Z,5Z,8Z)-undeca-2,5,8-trien-1-yl)oxiran-2-yl)nona-4,7-dienamide] | 21.3±1.9 | 9.34 | comparable to 10, 1-EDP-EA | 27.19±4.05 | most potent | 4.5-6 times | most potent | 10.52 | 17.09±4.4 | 5.17±0.06 | – | – | –
2 | CC/C=C\C/C=C\C/C=C\CC1OC1C/C=C\C/C=C\CCC(=O)NCCO (stereo not shown) [10,11-EDP-EA, reference compound] | – | 7.65 | 1-2 times | – | 1-1.9 times | – | 1.00-1.44 times | 9.37 | – | 30.0±0.3 | Prevent Angiogenesis | – | –
3 | CC/C=C\C/C=C\C/C=C\CC1OC1C/C=C\C/C=C\CCC(=O)NC(C)CO (stereo not shown) [10,11-EDP-IA, (4Z,7Z)—N-(1-Hydroxypropan-2-yl)-9-(3-((2Z,5Z,8Z)-undeca-2,5,8-trien-1-yl)oxiran-2-yl)nona-4,7-dienamide] | 18.8±0.3 | 10.10 | slightly poorer than the control | 20.15±1.75 | 1-3.9 times | – | 1-1.75 times | 10.15 | 17.48±2.8 | 0.99±0.04 | – | – | –
4 | CC/C=C\C/C=C\C/C=C\CC1OC1C/C=C\C/C=C\CCC(=O)NCCCO (stereo not shown) [10,11-EDP-NA, (4Z,7Z)—N-(3-Hydroxypropyl)-9-(3-((2Z,5Z,8Z)-undeca-2,5,8-trien-1-yl)oxiran-2-yl)nona-4,7-dienamide] | 25.7±0.4 | 8.14 | slightly poorer than the control | 17.05±1.4 | 1-1.47 times | – | 1-1.7 times | 9.72 | 15.15±3.28 | – | – | – | –
5 | CCC1OC1C/C=C\C/C=C\C/C=C\C/C=C\C/C=C\CCC(=O)NCCO (stereo not shown) [19,20-EDP-EA] | – | – | – | – | – | – | – | – | – | 150 | – | reduction in 11-6 and nitrite in a dose dependent manner | reduction in 11-6 and nitrite in a dose dependent manner
